From patent US8802664B2 (Bioproject, priority 2010, dated 2014)

Assays:
human H4 receptor = target: T1, human H4 receptor (Homo sapiens, UniProt Q9H3N8); assay: [3H]Histamine binding on membranes of CHO cells stably expressing human H4 receptor
T1 construct: expressed in transfected cells
Method in brief: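 CHO-hH4 membranes 20 μg/well; buffer 50 mM Tris/HCl, 0.5 mM EDTA, pH 7.4; NSB: 10 μM JNJ 7777120 (BP1.2404); GF/B filtration (PEI-presoaked), 3 ice-cold washes; scintillation counting.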

Structure (SMILES) | Ki or IC50 activity class (human H4 receptor) [nM] | melting point [°C]
CN1CCC(OC(c2cccc(SCCNC(=N)NC#N)c2)c2nc3ccccc3[nH]2)CC1 (stereo not shown) [Example 318, N-(2-{3-[(1H-benzimidazol-2-yl)(1-methylpiperidin-4-yloxy)methyl]phenylsulfanyl}ethyl)-N′-cyanoguanidine] | < 30 | 65
CN1CCC(OC(c2cccc(OCCCN)c2)c2nc3ccccc3[nH]2)CC1 (stereo not shown) [Example 327, 3-{3-[(1H-benzimidazol-2-yl)(1-methylpiperidin-4-yloxy)methyl]phenoxy}propylamine] | < 300 | 97
CN1CCC(OC(c2nc3ccccc3[nH]2)c2cccc(I)c2F)CC1 (stereo not shown) [Example 334, 2-[(2-fluoro-3-iodophenyl)(1-methylpiperidin-4-yloxy)methyl]-1H-benzimidazole] | < 300 | 125
CN1CCC(OC(c2cccc(C#CCCCNC(=N)NC(=O)OC(C)(C)C)c2)c2nc3ccccc3s2)CC1 (stereo not shown) [Example 339, N-tert-butoxycarbonyl-N′-(5-{3-[(benzothiazol-2-yl)(1-methylpiperidin-4-yloxy)methyl]phenyl}pent-5-ynyl)guanidine] | < 300 | 125
CN1CCC(OC(c2cccc(C#CCCCCNC(=N)NC(=O)OC(C)(C)C)c2)c2nc3ccccc3s2)CC1 (stereo not shown) [Example 341, N-tert-butoxycarbonyl-N′-(6-{3-[(benzothiazol-2-yl)(1-methylpiperidin-4-yloxy)methyl]phenyl}hex-5-ynyl)guanidine] | < 300 | 130
CN1CCC(OC(c2cccc(OCCCCN3CCN(C(=O)OC(C)(C)C)CC3)c2)c2nc3ccccc3[nH]2)CC1 (stereo not shown) [Example 343, 4-(4-{3-[(1H-benzimidazol-2-yl)(1-methylpiperidin-4-yloxy)methyl]phenoxy}butyl)piperazine-1-carboxylic acid tert-butyl ester] | < 300 | 64
CN1CCC(OC(c2nc3ccccc3[nH]2)c2cccc(SCCN)c2F)CC1 (stereo not shown) [Example 352, 2-{3-[(1H-benzimidazol-2-yl)(1-methylpiperidin-4-yloxy)methyl]-2-fluorophenylsulfanyl}ethylamine] | < 300 | 204
CN1CCC(OC(c2cccc(OCCCCCN3CCN(C(=O)OC(C)(C)C)CC3)c2)c2nc3ccccc3s2)CC1 (stereo not shown) [Example 362, 4-(5-{3-[benzothiazol-2-yl(1-methylpiperidin-4-yloxy)methyl]phenoxy}pentyl)piperazine-1-carboxylic acid tert-butyl ester] | < 1000 | 131
CN1CCC(OC(c2cccc(CCCCCCNC(=N)NC(=O)OC(C)(C)C)c2)c2nc3ccccc3[nH]2)CC1 (stereo not shown) [Example 364, N-tert-butoxycarbonyl-N′-(6-{3-[(1H-benzimidazol-2-yl)(1-methylpiperidin-4-yloxy)methyl]phenyl}hexyl)guanidine] | < 1000 | 90
CN1CCC(NC(c2cccc(OCCCCN)c2)c2nc3ccccc3[nH]2)CC1 (stereo not shown) [Example 367, [[3-(4-aminobutoxy)phenyl](1H-benzimidazol-2-yl)methyl](1-methylpiperidin-4-yl)amine] | < 300 | 68
CN1CCC(OC(c2cccc(SCCCN)c2)c2nc3ccccc3[nH]2)CC1 (stereo not shown) [Example 368, 3-{3-[(1H-benzimidazol-2-yl)(1-methylpiperidin-4-yloxy)methyl]phenylsulfanyl}propylamine] | < 30 | 126
CN1CCC(OC(c2cccc(C#CC3CCCNC3)c2)c2nc3ccccc3[nH]2)CC1 (stereo not shown) [Example 380, 2-[(1-methylpiperidin-4-yloxy)(3-piperidin-3-ylethynylphenyl)methyl]-1H-benzimidazole] | < 300 | 97
CN1CCC(OC(c2cccc(SCCNc3c(N)c(=O)c3=O)c2)c2nc3ccccc3[nH]2)CC1 (stereo not shown) [Example 385, 3-amino-4-(2-{3-[(1H-benzimidazol-2-yl)(1-methylpiperidin-4-yloxy)methyl]phenylsulfanyl}ethylamino)-cyclobut-3-ene-1,2-dione] | < 300 | 161
CN1CCC(NC(c2cccc(OCCCCN)c2)c2nc3ccccc3s2)CC1 (stereo not shown) [Example 387, {[3-(4-aminobutoxy)phenyl]benzothiazol-2-yl-methyl}(1-methylpiperidin-4-yl)amine] | < 30 | 67
CN1CCC(OC(c2cccc(C#CC3CNC3)c2)c2nc3ccccc3[nH]2)CC1 (stereo not shown) [Example 388, 2-[(3-azetidin-3-ylethynylphenyl)(1-methylpiperidin-4-yloxy)methyl]-1H-benzimidazole] | < 1000 | 131
CN1CCC(OC(c2cccc(CCC3CNC3)c2)c2nc3ccccc3[nH]2)CC1 (stereo not shown) [Example 392, 2-[[3-(2-azetidin-3-ylethyl)phenyl](1-methylpiperidin-4-yloxy)methyl]-1H-benzimidazole] | < 1000 | 146
CN1CCC(OC(c2cccc(SCCC3CCCCN3)c2)c2nc3ccccc3[nH]2)CC1 (stereo not shown) [Example 395, 2-{(1-methylpiperidin-4-yloxy)[3-(2-piperidin-2-yl-ethylsulfanyl)phenyl]methyl}-1H-benzimidazole] | < 300 | 164
CN1CCC(OC(c2cccc(C#CCCNC(=N)NC(=O)OC(C)(C)C)c2)c2nc3ccccc3s2)CC1 (stereo not shown) [Example 399, N-tert-butoxycarbonyl-N′-(4-{3-[(benzothiazol-2-yl)(1-methylpiperidin-4-yloxy)methyl]phenyl}but-3-ynyl)guanidine] | < 300 | 120
CN1CCC(COC(c2cccc(Br)c2)c2nc3ccccc3[nH]2)C1 (stereo not shown) [Example 414, 2-[(3-bromo-phenyl)(1-methylpyrrolidin-3-ylmethoxy)methyl]-1H-benzimidazole] | < 300 | 61
CN1CCC(OC(c2nc3ccccc3[nH]2)c2cc(F)ccc2F)CC1 (stereo not shown) [Example 424, 2-[(2,5-difluorophenyl)(1-methylpiperidin-4-yloxy)methyl]-1H-benzimidazole] | < 300 | 140
CN1CCC(OC(c2cccc(SCCCCO)c2)c2nc3cc(F)ccc3[nH]2)CC1 (stereo not shown) [Example 427, 4-{3-[(5-fluoro-1H-benzimidazol-2-yl)(1-methylpiperidin-4-yloxy)methyl]phenylsulfanyl}butan-1-ol] | < 300 | 85
CN1CCC(OC(c2nc3ccccc3[nH]2)c2cc(OC(F)(F)F)ccc2F)CC1 (stereo not shown) [Example 433, 2-[(2-fluoro-5-trifluoromethoxyphenyl)(1-methylpiperidin-4-yloxy)methyl]-1H-benzimidazole] | < 30 | 95

The next lines start with the values.

Ki or IC50 activity class (human H4 receptor) [nM] | melting point [°C] | Structure (SMILES)
< 30 | 170 | CN1CCC(OC(c2cccc(SCCNC(=N)N)c2)c2nc3cc(F)ccc3[nH]2)CC1 (stereo not shown) [Example 437, N-(2-{3-[(5-fluoro-1H-benzimidazol-2-yl)(1-methylpiperidin-4-yloxy)methyl]phenylsulfanyl}ethyl)guanidine]
< 300 | 62 | CN1CCC(OC(c2cccc(SCC3=NCCN3)c2)c2nc3ccccc3[nH]2)CC1 (stereo not shown) [Example 468, 2-[[3-(4,5-dihydro-1H-imidazol-2-ylmethylsulfanyl)phenyl](1-methylpiperidin-4-yloxy)methyl]-1H-benzimidazole]
< 1000 | 70 | CN1CCC(OC(c2cccc(Br)c2)c2nc3cc(F)c(F)cc3[nH]2)CC1 (stereo not shown) [Example 469, 2-[(3-bromophenyl)(1-methylpiperidin-4-yloxy)methyl]-5,6-difluoro-1H-benzimidazole]
< 300 | 60 | CN1CCC(OC(c2cccc(SCCCCO)c2)c2nc3cc(F)c(F)cc3[nH]2)CC1 (stereo not shown) [Example 470]
< 1000 | 140 | CN1CCC(OC(c2cccc(Br)c2)c2nc3cc(F)c(F)c(F)c3[nH]2)CC1 (stereo not shown) [Example 481, 2-[(3-bromophenyl)(1-methylpiperidin-4-yloxy)methyl]-5,6,7-trifluoro-1H-benzimidazole]
< 300 | 75 | CN1CCC(OC(c2nc3c(F)c(F)c(F)cc3[nH]2)c2cc(OC(F)(F)F)ccc2F)CC1 (stereo not shown) [Example 510]
< 300 | 79 | CN1CCC(OC(c2nc3cc(F)c(F)cc3[nH]2)c2cc(OC(F)(F)F)ccc2F)CC1 (stereo not shown) [Example 511]
< 30 | 204 | CN1CCC(OC(c2nc3ccccc3[nH]2)c2cc(OCC(F)(F)F)ccc2F)CC1 (stereo not shown) [Example 522]
< 30 | 211 | Cc1cc(F)c(C(OC2CCN(C)CC2)c2nc3ccccc3[nH]2)c(F)c1 (stereo not shown) [Example 523, 2-[(2,6-difluoro-4-methylphenyl)(1-methylpiperidin-4-yloxy)methyl]-1H-benzimidazole]
< 30 | 195 | CN1CCC(OC(c2nc3ccccc3[nH]2)c2c(F)cc(Cl)cc2F)CC1 (stereo not shown) [Example 527]
< 1000 | 189 | CN1CC=C(SC(c2cccc(Br)c2)c2nc3ccccc3[nH]2)CC1 (stereo not shown) [Example 530, 2-[(3-bromophenyl)(1-methyl-1,2,3,6-tetrahydropyridin-4-ylsulfanyl)methyl]-1H-benzimidazole]
< 300 | 185 | COc1ccc(F)c(C(OC2CCN(C)CC2)c2nc3ccccc3[nH]2)c1F (stereo not shown) [Example 534, 2-[(2,6-difluoro-3-methoxyphenyl)(1-methylpiperidin-4-yloxy)methyl]-1H-benzimidazole]
< 300 | 130 | CCOc1ccc(F)c(C(OC2CCN(C)CC2)c2nc3ccccc3[nH]2)c1F (stereo not shown) [Example 535]
